Measured values reported in patent US11439631B2, “Use of a glutarimide derivative to treat diseases related to the aberrant activity of cytokines” (“CHEMIMMUNE THERAPEUTICS” LIMITED LIABILITY COMPANY, priority 2017, dated 2022).

Tests used:
[1] = system: thermal pain irritation (hot plate); assay: Thermal pain irritation model hot plate; assay type: in vivo, Balb/c mice; details: Compound 1 30 mg/kg, Ketorol 15 mg/kg, M ± m, n = 12
Protocol: The model of thermal pain irritation “hot plate” was carried out according to the standard procedure [Valdman A. V., Ignatov Y. D. Central mechanisms of pain. L.: Nauka, 1976]. The test compound was administered to Balb/c mice intragastrically, once. After 1, 4, 6, 12, 24 hours after the administration of the preparation, the “hot plate” test was carried out. To conduct the “hot plate” test, the mice were placed on the hot plate, the temperature (+55±1° C.) of which is constant. The time of first manifestations of the pain response in mice (paw licking, jumping) was registered and the mean latent time of the threshold of pain sensitivity (TPS, sec) in each group was calculated.

mouse model of psoriasis = assay: Mouse model of psoriasis (Aldar cream, 5% imiquimod): ear thickness and clinical signs; assay type: in vivo, female Balb/c mice; details: Compound 1 30 mg/kg, Neotigason 5 mg/kg, M ± m, n = 20
Protocol: The induction of psoriasis in mice was carried out according to the standard procedure [European Journal of Pharmacology. 2015. V. 756. P. 43-51]. Aldar cream (5% imiquimod) was applied to female Balb/c mice on the inner side of the right ear once daily by 30 mg/mouse for 7 days (0-6th day). Vaseline was applied to the intact animals. […] Euthanasia was carried out 24 hours later (7th day) after the last application of the Aldar cream. Daily on the 0, 2nd, 3rd, 4th, 5th, 6th day, the thickness of the right ear was measured in the morning before the next application of the Aldar cream and before the euthanasia. After the euthanasia, blood was collected from the heart cavities, serum was isolated. The content of MCP1 was determined in blood serum by an enzyme-linked immunosorbent assay method, using test systems Mouse CCL2 (MCP-1) Uncoated ELISA Kit (Invitrogen).
2011. V. 88(1-2). P. 100-113].

SMILES | TPS, % to the values before the administration of the preparation, after 1 hours ([1]; 1 hour after single intragastric dose) [%] | TPS, % to the values before the administration of the preparation, after 4 hours ([1]; 4 hours after single intragastric dose) [%] | TPS, % to the values before the administration of the preparation, after 6 hours ([1]; 6 hours after single intragastric dose) [%] | TPS, % to the values before the administration of the preparation, after 12 hours ([1]; 12 hours after single intragastric dose) [%] | TPS, % to the values before the administration of the preparation, after 24 hours ([1]; 24 hours after single intragastric dose) [%] | The gain of the ear thickness at the determined day of study to day 0, Day 2 (mouse model of psoriasis; Day 2, intragastric once daily) | The gain of the ear thickness at the determined day of study to day 0, Day 3 (mouse model of psoriasis; Day 3, intragastric once daily) | The gain of the ear thickness at the determined day of study to day 0, Day 4 (mouse model of psoriasis; Day 4, intragastric once daily) | Clinical signs of psoriasis, Erythema, Day 4 (mouse model of psoriasis; Day 4, score 0-4 (Table 1)) | Clinical signs of psoriasis, Flakes, Day 4 (mouse model of psoriasis; Day 4, score 0-4 (Table 1)) | Clinical signs of psoriasis, Thickening, Day 4 (mouse model of psoriasis; Day 4, score 0-4 (Table 1)) | The gain of the ear thickness at the determined day of study to day 0, Day 5 (mouse model of psoriasis; Day 5, intragastric once daily) [%] | The gain of the ear thickness at the determined day of study to day 0, Day 6 (mouse model of psoriasis; Day 6, intragastric once daily) [%] | Clinical signs of psoriasis, Erythema, Day 6 (mouse model of psoriasis; Day 6, score 0-4 (Table 1)) | Clinical signs of psoriasis, Flakes, Day 6 (mouse model of psoriasis; Day 6, score 0-4 (Table 1)) | Clinical signs of psoriasis, Thickening, Day 6 (mouse model of psoriasis; Day 6, score 0-4 (Table 1))
O=C(c1ccccc1)c1ccc2n1CCC2C(=O)O (stereo not shown) [Ketorol] | 146.4 ± 16.6 | 195.9 ± 30.0 | 176.6 ± 34.0 | 166.5 ± 25.3 | 159.7 ± 22.4 |  |  |  |  |  |  |  |  |  |  | 
COc1cc(C)c(/C=C/C(C)=C/C=C/C(C)=C/C(=O)O)c(C)c1C [Neotigason, reference compound] |  |  |  |  |  | 14.2 ± 1.9*& % | 27.5 ± 1.8*& % | 45.9 ± 2.5*& % | 1.2 ± 0.1*& points | 0.0 ± 0.0& points | 1.4 ± 0.1*& points | 68.9 ± 1.8 | 83.1 ± 1.4 | 1.6 ± 0.1*& points | 0 ± 0& points | 1.3 ± 0.1*& points
